Results published in patent US11078170B2 (Assembly Biosciences, Inc., priority 2017, dated 2021).

System: HBV viral production from HepAD38 cells
Assay: Activity of test compounds on viral production from HepAD38 cells (viral load by qPCR of HBV core sequence in supernatant)
Type: cell-based
Settings: Hepatitis B virus, 120 h, 5 days incubation, HBV DNA in supernatant by qPCR, top concentration 10 μM, read-out: Viral Load EC50 Activity range
Description: Assay Measuring Activity of Test Compounds on Viral Production from HepAD38 Cells
HepAD38 cells grown in a T-150 flask (Corning, cat #: 430825) with Growth Medium (DMEM/F12 (1:1) (Hyclone, cat #: SH30023.02), 1×Pen/Strep (Invitrogen, cat #: 15140-122), 10% FBS (Tissue Culture Biologics, cat #: 101), 250 μg/mL G418 (Alfa Aesar, cat #: J62671), 1 μg/mL Tetracycline (Teknova, cat #: T3320)) were detached with 0.25% trypsin-EDTA (Invitrogen, cat #: 25200-056). Tetracycline-free treatment medium (15 mL DMEM/F12 (1:1) 1× Pen/step, with 2% FBS, Tet-system approved (Clontech, cat #: 631106) were then added to mix, transferred into a 50 ml conical tube (Falcon, cat #: 21008-918) and spun at 1300 rpm for 5 min. Pelleted cells were then re-suspended/washed with 50 mL of 1×DPBS (Invitrogen, cat #: 14190-136) 2 times and 50 mL treatment medium twice. HepAD38 cells were then re-suspended with 10 mL of treatment medium, syringed and counted. Wells of 96-well clear bottom TC plate (Corning, cat #: 3904) were seeded at 50,000 cells/well in 180 μL of treatment medium, and 20 μL of either 10% DMSO (Sigma, cat #: D4540) as controls or a 10× solution of test compounds in 10% DMSO in treatment media was added for a final compound concentration starting at 10 μM, and plates were incubated in 5% CO2 incubator at 37° C. for 5 days.
Subsequently viral load production was assayed by quantitative PCR (qPCR) of the HBV core sequence. PCR reaction mixture containing forward primers HBV-f 5′-CTGTGCCTTGGGTGGCTTT-3′, which is SEQ ID NO 1, (IDT DNA), Reverse primers HBV-r 5′-[…]-3′, which is SEQ ID NO 2 (IDT DNA), Fluorescent TaqMan™ Probes HBV-probe 5′-FAM/AGCTCCAAA/ZEN/[…]/3IABkFQ-3′ (IDT DNA), which is SEQ ID NO 3, 10 μL/well of PerfeCTa® qPCR ToughMix® (Quanta Biosciences, Cat #: 95114-05K), and 6 µL/well of DEPC water (Alfa Aesar, cat #: J62087) was prepared. Four μL of supernatant was added to 16 μL of the reaction mixture in a qPCR plate (Applied Biosytems, Cat #: 4309849), sealed with a film (Applied Biosystems, Cat #: 4311971), centrifuged for a few seconds, and subsequently run on an Applied Biosystems VIIA7. The PCR mixture was incubated at 45° C. for 5 min, then 95° C. for 10 min, followed by 40 cycles of 10 seconds at 95° C. and 20 seconds at 60° C. Viral load was quantified against known HBV DNA standards by using ViiA™ 7 Software. Viral load in the supernatant from wells with treated cells were compared against viral load in supernatant from DMSO control wells (≥3 per plate). Cell viability assay was performed with CellTiter-Glo Luminescent Cell Viability Assay (Promega, cat #: G7573) with modification. Mixed appropriate amount of CellTiter-Glo (CTG) 1×DPBS in a 1:1 ratio, added 100 uL of the mixture to each well followed completely removal of all supernatant in each well without touching cell surface. Incubated the plate at room temperature for 10 min on an orbital shaker, and then read the plate with a plate reader (TECAN M1000 or Envision). EC50 or CC50 values were calculated through curve-fitting of the four-parameter nonlinear-logistic-regression model (GraphPad Prism or Dotmatics). CC50 values were all >10 μM.

Row | Compound | EC50 [nM]
1 | NC(=O)CN1C(C(=O)Nc2ccc(F)c(Cl)c2)CC(c2nccs2)NS1(=O)=O (centres unmarked) | 1000 to 5000
2 | Cc1cnc(C2CC(C(=O)Nc3ccc(F)c(Cl)c3)N(C)S(=O)(=O)N2)s1 (centres unmarked) | < 1000
3 | Cc1cnc([C@H]2C[C@@H](C(=O)Nc3ccc(F)c(Cl)c3)N(C)S(=O)(=O)N2)s1 | < 1000
4 | Cc1cnc([C@@H]2C[C@H](C(=O)Nc3ccc(F)c(Cl)c3)N(C)S(=O)(=O)N2)s1 | > 5000
5 | CN1C(C(=O)Nc2ccc(F)c(Cl)c2)CC(c2ncc(-c3ccccc3)s2)NS1(=O)=O (centres unmarked) | < 1000
6 | CN1[C@H](C(=O)Nc2ccc(F)c(Cl)c2)C[C@H](c2ncc(-c3ccccc3)s2)NS1(=O)=O | < 1000
7 | CN1[C@@H](C(=O)Nc2ccc(F)c(Cl)c2)C[C@@H](c2ncc(-c3ccccc3)s2)NS1(=O)=O | 1000 to 5000
8 | CN1C(C(=O)Nc2ccc(F)cc2)CC(c2cccs2)NS1(=O)=O (racemic) [HBV-CSU-007, Cis-N-(4-Fluorophenyl)-2-methyl-5-(thiophen-2-yl)-1,2,6-thiadiazinane-3-carboxamide 1,1-dioxide] | < 1000
9 | CN1C(C(=O)Nc2cccc(Cl)c2)CC(c2cccs2)NS1(=O)=O (racemic) [HBV-CSU-010, Cis-N-(3-chlorophenyl)-2-methyl-5-(thiophen-2-yl)-1,2,6-thiadiazinane-3-carboxamide 1,1-dioxide] | < 1000
10 | Cc1cccc(NC(=O)C2CC(c3cccs3)NS(=O)(=O)N2C)c1 (racemic) [HBV-CSU-013, Cis-2-Methyl-5-(thiophen-2-yl)-N-(m-tolyl)-1,2,6-thiadiazinane-3-carboxamide 1,1-dioxide] | < 1000
11 | CN1C(C(=O)Nc2ccc(F)c(Br)c2)CC(c2cccs2)NS1(=O)=O (racemic) [HBV-CSU-016, Cis-N-(3-Bromo-4-fluorophenyl)-2-methyl-5-(thiophen-2-yl)-1,2,6-thiadiazinane-3-carboxamide 1,1-dioxide] | < 1000
12 | CN1C(C(=O)Nc2cccc(C#N)c2)CC(c2cccs2)NS1(=O)=O (racemic) [HBV-CSU-020, Cis-N-(3-cyanophenyl)-2-methyl-5-(thiophen-2-yl)-1,2,6-thiadiazinane-3-carboxamide 1,1-dioxide] | < 1000
13 | CCN1C(C(=O)Nc2ccc(F)c(Cl)c2)CC(c2cccs2)NS1(=O)=O (racemic) [HBV-CSU-024, Cis-N-(3-chloro-4-fluorophenyl)-2-ethyl-5-(thiophen-2-yl)-1,2,6-thiadiazinane-3-carboxamide 1,1-dioxide] | < 1000
14 | COCCN1C(C(=O)Nc2ccc(F)c(Cl)c2)CC(c2cccs2)NS1(=O)=O (racemic) [HBV-CSU-025, Cis-N-(3-chloro-4-fluorophenyl)-2-(2-methoxyethyl)-5-(thiophen-2-yl)-1,2,6-thiadiazinane-3-carboxamide 1,1-dioxide] | < 1000
15 | CN1C(C(=O)Nc2ccc(F)c(Cl)c2)CC(c2nccs2)NS1(=O)=O (racemic) [HBV-CSU-027, Cis-N-(3-chloro-4-fluorophenyl)-2-methyl-5-(thiazol-2-yl)-1,2,6-thiadiazinane-3-carboxamide 1,1-dioxide] | < 1000
16 | CN1C(C(=O)Nc2ccc(F)c(Cl)c2)CC(c2ccccn2)NS1(=O)=O (racemic) [HBV-CSU-031, Cis-N-(3-Chloro-4-fluorophenyl)-2-methyl-5-(pyridin-2-yl)-1,2,6-thiadiazinane-3-carboxamide 1,1-dioxide] | < 1000
17 | CN1C(C(=O)Nc2cc(F)c(F)c(F)c2)CC(c2cccs2)NS1(=O)=O (racemic) [HBV-CSU-036, Cis-2-Methyl-5-(thiophen-2-yl)-N-(3,4,5-trifluorophenyl)-1,2,6-thiadiazinane-3-carboxamide 1,1-dioxide] | < 1000
18 | CN1C(C(=O)Nc2ccc(F)c(C#N)c2)CC(c2cccs2)NS1(=O)=O (racemic) [HBV-CSU-045, Cis-N-(3-cyano-4-fluorophenyl)-2-methyl-5-(thiophen-2-yl)-1,2,6-thiadiazinane-3-carboxamide 1,1-dioxide] | < 1000
19 | COCCN1C(C(=O)Nc2ccc(F)c(Cl)c2)CC(c2nccs2)NS1(=O)=O (racemic) [HBV-CSU-058, Cis-N-(3-chloro-4-fluorophenyl)-2-(2-methoxyethyl)-5-(thiazol-2-yl)-1,2,6-thiadiazinane-3-carboxamide 1,1-dioxide] | < 1000
20 | COCCN1C(C(=O)Nc2ccc(F)c(Br)c2)CC(c2nccs2)NS1(=O)=O (racemic) [HBV-CSU-059, Cis-N-(3-bromo-4-fluorophenyl)-2-(2-methoxyethyl)-5-(thiazol-2-yl)-1,2,6-thiadiazinane-3-carboxamide 1,1-dioxide] | < 1000
21 | CC(C)(C)OCCN1C(C(=O)Nc2ccc(F)c(Cl)c2)CC(c2nccs2)NS1(=O)=O (racemic) [HBV-CSU-071, Cis-2-(2-(tert-Butoxy)ethyl)-N-(3-chloro-4-fluorophenyl)-5-(thiazol-2-yl)-1,2,6-thiadiazinane-3-carboxamide 1,1-dioxide] | 1000 to 5000
22 | O=C(Nc1ccc(F)c(Cl)c1)C1CC(c2nccs2)NS(=O)(=O)N1CCOC(F)(F)F (racemic) [HBV-CSU-072, Cis-N-(3-Chloro-4-fluorophenyl)-5-(thiazol-2-yl)-2-(2-(trifluoromethoxy)ethyl)-1,2,6-thiadiazinane-3-carboxamide 1,1-dioxide] | < 1000
23 | CS(=O)(=O)CCN1C(C(=O)Nc2ccc(F)c(Cl)c2)CC(c2nccs2)NS1(=O)=O (racemic) [HBV-CSU-073, Cis-N-(3-Chloro-4-fluorophenyl)-2-(2-(methylsulfonyl)ethyl)-5-(thiazol-2-yl)-1,2,6-thiadiazinane-3-carboxamide 1,1-dioxide] | > 5000
24 | CN(C)CCN1C(C(=O)Nc2ccc(F)c(Cl)c2)CC(c2nccs2)NS1(=O)=O (racemic) [HBV-CSU-074, Cis-N-(3-Chloro-4-fluorophenyl)-2-(2-(dimethylamino)ethyl)-5-(thiazol-2-yl)-1,2,6-thiadiazinane-3-carboxamide 1,1-dioxide] | > 5000
25 | O=C(Nc1ccc(F)c(Cl)c1)C1CC(c2nccs2)NS(=O)(=O)N1CCCO (racemic) [HBV-CSU-078, Cis-N-(3-Chloro-4-fluorophenyl)-2-(3-hydroxypropyl)-5-(thiazol-2-yl)-1,2,6-thiadiazinane-3-carboxamide 1,1-dioxide] | 1000 to 5000
26 | O=C(Nc1ccc(F)c(Cl)c1)C1CC(c2nccs2)NS(=O)(=O)N1CC1CCCO1 (racemic) [HBV-CSU-079-Rac-A, Cis-N-(3-Chloro-4-fluorophenyl)-2-((tetrahydrofuran-2-yl)methyl)-5-(thiazol-2-yl)-1,2,6-thiadiazinane-3-carboxamide 1,1-dioxide] | < 1000
27 | O=C(Nc1ccc(F)c(Cl)c1)C1CC(c2nccs2)NS(=O)(=O)N1CCN1CCOCC1 (racemic) [HBV-CSU-082, Cis-N-(3-Chloro-4-fluorophenyl)-2-(2-morpholinoethyl)-5-(thiazol-2-yl)-1,2,6-thiadiazinane-3-carboxamide 1,1-dioxide] | > 5000
28 | COC(C)(C)CCN1C(C(=O)Nc2ccc(F)c(Cl)c2)CC(c2nccs2)NS1(=O)=O (racemic) [HBV-CSU-083, Cis-N-(3-Chloro-4-fluorophenyl)-2-(3-methoxy-3-methylbutyl)-5-(thiazol-2-yl)-1,2,6-thiadiazinane-3-carboxamide 1,1-dioxide] | > 5000
29 | O=C(Nc1ccc(F)c(Cl)c1)C1CC(c2nccs2)NS(=O)(=O)N1CCc1c[nH]nn1 (racemic) [HBV-CSU-092, Cis-2-(2-(1H-1,2,3-Triazol-4-yl)ethyl)-N-(3-chloro-4-fluorophenyl)-5-(thiazol-2-yl)-1,2,6-thiadiazinane-3-carboxamide 1,1-dioxide] | 1000 to 5000
